Counter-ions that a name gives are not always drawn. Like-named read-outs stand apart in the source and are kept apart here.
Key:
[1] = Inhalation Kill (animals); type: in vivo; settings: Table XVI
Description: Toxicity tests were performed on commercially available (meth) acrylate oligomers and diluents and on commercially available vinyl ether and maleate diluents.

[2] = not given; remark: listed apart in the source
[3] = Viscosity (Brookfield viscometer); type: physicochemical; settings: 25° C., product as prepared
Description: The viscosity, expressed in pascal seconds (Pa s), was measured using a Brookfield Model RVTD viscometer operated in accordance with the instructions provided therewith. The temperature of each sample tested was 25° C.
The viscosity of the saturated ester oligomers having maleate end groups was determined utilizing a Brookfield RTV viscometer.

viscosity [3] | viscosity ([3]; listed as Component 3) | Structure (SMILES) | Skin Irritation (Table XVI, max. = 8) | Inhalation Kill [1] | Eye Irritation ([2]; Table XVI, max. = 10) | Skin Irritation (in vivo) | Eye Irritation ([2]; in vivo)
– | – | C=CC(=O)OCCCCCCOC(=O)C=C [1,6-hexanediol diacrylate] | 3 | 0 of 6 | 2 | – | –
– | – | C=CC(=O)OCCO [2-hydroxyethyl acrylate] | 6 | 1 of 6 | 9 | – | –
– | – | C=CC(=O)OCCOc1ccccc1 [2-phenoxyethyl acrylate] | 3 | 0 of 6 | 1 | – | –
– | – | CCOC(=O)/C=C\C(=O)OCC [Diethyl maleate] | mild | – | mild | – | –
– | – | C=CC(=O)OCCOCCOC(=O)C=C [Diethyleneglycol diacrylate] | 5 | 0 of 6 | 9 | – | –
– | – | COC(=O)/C=C\C(=O)OC [Dimethyl maleate] | – | – | – | 5.47 | moderate
– | – | CCCCOC(=O)/C=C\C(=O)OCCCC [Dubutyl maleate] | mild | – | – | – | –
about 36 cP | 36 cP | C=COCCCCOC(=O)/C=C\C(=O)OCC [Example 1, 4-vinyloxybutyl ethyl maleate] | – | – | – | – | –
– | – | C=CC(=O)OCC(C)(C)COC(=O)C=C [Neopentylglycol diacrylate] | 5 | 1 of 6 | 8 | – | –
– | – | C=CC(=O)OCC(CO)(COC(=O)C=C)COC(=O)C=C [Pentaerythritol triacrylate] | 2 | 0 of 6 | 10 | – | –

— US5334456A, “Free-radical curable compositions” (priority 1992, dated 1994)
